From US10611750B2, “Tetrahydroquinoline compositions as bet bromodomain inhibitors” (FORMA Therapeutics, Inc., priority 2013, dated 2020)

Columns and labels:
[1] = target: T1, BRD4 Bromodomain 1 (BRD4 BD1) (Homo sapiens, UniProt O60885); experiment: AlphaScreen binding assay, BRD4 BD1; settings: His-tagged BRD4 BD1 50 nM, biotinylated H4 (1-21) K5/8/12/16 tetra-acetylated peptide 50 nM, compounds listed under IC50 range headings
T1 construct: 44-168 and BRD4 BD2
In short: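 Compound dilution series were mixed with His-tagged BRD4 bromodomain and biotinylated tetra-acetylated H4 (1-21) peptide at pH 7.3 (BD1 and peptide at 50 nM, BD2 and peptide at 100 nM). Donor and acceptor beads were then added, and plates were equilibrated at least 1 h before reading. IC50 values were fitted with a four-parameter logistic model.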

[2] = target: T2, BRD4 Bromodomain 2 (BRD4 BD2) (Homo sapiens, UniProt O60885); experiment: AlphaScreen binding assay, BRD4 BD2; settings: His-tagged BRD4 BD2 100 nM, biotinylated H4 (1-21) K5/8/12/16 tetra-acetylated peptide 100 nM, compounds listed under IC50 range headings
T2 construct: 333-460 were cloned, expressed, and purified to homogeneity
Method: The binding of Example compounds to BRD4 Bromodomain 1 and BRD4 Bromodomain 2 was assessed using 384-well AlphaScreen assay technology. His-epitope tagged BRD4 BD144-168 and BRD4 BD2333-460 were cloned, expressed, and purified to homogeneity. BRD4 BD1 and BRD4 BD2 binding and inhibition was assessed by monitoring the engagement of biotinylated Histone H4 (1-21) K5/8/12/16 tetra-acetylated peptide with the targets using the AlphaScreen technology (PerkinElmer). Specifically, in a 384-well black or white flat bottom plate, BRD4 BD1 (50 nM final) or BRD4 BD2 (100 nM final) was combined with peptide (50 nM final for BD1 or 100 nM final for BD2) in 50 mM HEPES (pH 7.3), 100 mM NaCl, 0.1% (w/v) BSA, and 0.01% (w/v) Triton X-100 either in the presence of DMSO (final 1.25% DMSO) or compound dilution series in DMSO. Alpha streptavidin donor beads and Nickel-chelate acceptor beads were added to a final concentration of 10 μg/ml each. After a minimum of 1 hour equilibration, plates were read on a BMG PHERAstar FS multi-label reader (BMG LabTech). The half maximal inhibitory concentration (IC50) values were calculated using IDBS Activity Base software with a four parameter logistic curve fit by the equation y=A+((B−A)/(1+((C/x)^D))), wherein A denotes the bottom plateau of the curve, B denotes the top plateau of the curve, C denotes the x value at the middle of the curve, D denotes the slope factor, x denotes the original known x values, and y denotes the original known y values. Data was fitted using the Levenburg Marquardt algorithm.

[3] = test system: acute myelocytic leukemia (AML) cell line MV4-11; experiment: Oncology cell growth assay (3-day proliferation, CellTiter-Glo); format: cell-based; settings: Homo sapiens, MV4-11, 72 h, MV4-11 cells, 3000 cells/well, compounds listed under IC50 range headings, read-out: MV411 IC50 (gIC50, inhibition of proliferation)
In short: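 Compounds were serially diluted 3-fold in DMSO, giving final well concentrations from 10 down to 0.0045 μM. MV4-11 cells were then seeded at 3000 cells/well in RPMI 1640 with 10% FBS and incubated 72 hours. CellTiter-Glo signal was measured and gIC50 obtained by four-parameter logistic regression.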

Compound	IC50 [1]	IC50 [2]	IC50 [3]
CC(=O)N1c2ccc(-c3cnn(C4COC4)c3)c(OC[C@H]3CCNC3)c2CC[C@@H]1C [I-601]	1 to 10 µM	0.05 to 0.5 µM	–
CC(=O)N1c2cccc(Oc3ccccc3)c2CCC1C (racemic) [I-112, rac-1-(2-methyl-5-phenoxy-3,4-dihydroquinolin-1(2H)-yl)ethanone]	≥ 10 µM	0.05 to 0.5 µM	–
CCCOc1c(-c2cccc(NS(C)(=O)=O)c2)ccc2c1CC[C@H](C)N2C(C)=O [I-490]	1 to 10 µM	0.05 to 0.5 µM	–
CC(=O)N1c2ccc(-c3cnn(C4CC4)c3)c(O/C=C/Cl)c2CC[C@@H]1C [I-277, (S,E)-1-(5-(2-chlorovinyloxy)-6-(1-cyclopropyl-1H-pyrazol-4-yl)-2-methyl-3,4-dihydroquinolin-1(2H)-yl)ethanone]	1 to 10 µM	0.05 to 0.5 µM	–
CC(=O)N1c2ccc(-c3cnn(CC(C)(C)O)c3)c(OC[C@H]3CCNC3)c2CC[C@@H]1C [I-604]	1 to 10 µM	≥ 0.5 µM	–
CC(=O)N1c2cccc(OCC(=O)N(C)C)c2CC[C@@H]1C [I-606]	≥ 10 µM	≥ 0.5 µM	–
COC(=O)N1c2ccc(-c3cnn(C4CC4)c3)c(OC3CN(C(=O)OC(C)(C)C)C3)c2CC[C@@H]1C [I-58, (S)-methyl 5-(1-(tert-butoxycarbonyl)azetidin-3-yloxy)-6-(1-cyclopropyl-1H-pyrazol-4-yl)-2-methyl-3,4-dihydroquinoline-1(2H)-carboxylate]	≥ 10 µM	≥ 0.5 µM	–
CCCOc1cccc2c1CC[C@H](C)N2C(C)=O [I-605]	≥ 10 µM	≥ 0.5 µM	–
COC(=O)N1c2ccc(-c3cnn(C4CC4)c3)c(OCC(=O)N3CCOCC3)c2CC[C@@H]1C [I-26, (S)-methyl 6-(1-cyclopropyl-1H-pyrazol-4-yl)-2-methyl-5-(2-morpholino-2-oxoethoxy)-3,4-dihydroquinoline-1(2H)-carboxylate]	1 to 10 µM	0.05 to 0.5 µM	–
CC(=O)N1c2ccc(-c3cnn(C4COC4)c3)c(OCCNS(C)(=O)=O)c2CC[C@@H]1C [I-380]	1 to 10 µM	0.05 to 0.5 µM	–
CC(=O)N1c2ccc(-c3cnn(C4CC4)c3)c(OCCF)c2CC[C@@H]1C [I-5, (S)-1-(6-(1-cyclopropyl-1H-pyrazol-4-yl)-5-(2-fluoroethoxy)-2-methyl-3,4-dihydroquinolin-1(2H)-yl)ethanone]	1 to 10 µM	0.05 to 0.5 µM	–
CC(=O)N1c2ccc(-c3cnn(C4CC4)c3)c(OCCC3COC3)c2CC[C@@H]1C [I-47, (S)-1-(6-(1-cyclopropyl-1H-pyrazol-4-yl)-2-methyl-5-(2-(oxetan-3-yl)ethoxy)-3,4-dihydroquinolin-1(2H)-yl)ethanone]	1 to 10 µM	0.05 to 0.5 µM	–
COC(=O)N1c2ccc(-c3cnn(C4CC4)c3)c(OC3CC(F)(F)C3)c2CC[C@@H]1C [I-33, (S)-methyl 6-(1-cyclopropyl-1H-pyrazol-4-yl)-5-(3,3-difluorocyclobutoxy)-2-methyl-3,4-dihydroquinoline-1(2H)-carboxylate]	1 to 10 µM	≥ 0.5 µM	–
CC(=O)N1c2ccc(-c3cnn(CCO)c3)c(OCC(=O)N3CCCC3)c2CC[C@@H]1C [I-430]	1 to 10 µM	0.05 to 0.5 µM	–
COC(=O)N1c2ccc(-c3cnn(CCO)c3)c(OCC(=O)N3CCCC3)c2CC[C@@H]1C [I-465]	1 to 10 µM	0.05 to 0.5 µM	–
CC(=O)N1c2ccc(-c3cnn(C4CCNCC4)c3)c(OC[C@H]3CCC(=O)N3)c2CC[C@@H]1C [I-435]	1 to 10 µM	0.05 to 0.5 µM	–

Compound	IC50 [1]	IC50 [2]	IC50 [3]
CC(=O)N1c2ccc(-c3cnn(C4CC4)c3)c(OCc3ncc(C)o3)c2CC[C@@H]1C [I-478]	1 to 10 µM	0.05 to 0.5 µM	–
COC(=O)N1c2ccc(-c3cnn(C4CC4)c3)c(OC(C)(C)C(N)=O)c2CC[C@@H]1C [I-18, (S)-methyl 5-(1-amino-2-methyl-1-oxopropan-2-yloxy)-6-(1-cyclopropyl-1H-pyrazol-4-yl)-2-methyl-3,4-dihydroquinoline-1(2H)-carboxylate]	1 to 10 µM	0.05 to 0.5 µM	–
CC(=O)N1c2ccc(-c3cnn(C4CCNCC4)c3)c(Oc3ccc(F)c(F)c3)c2CC[C@@H]1C [I-275, (S)-1-(5-(3,4-difluorophenoxy)-2-methyl-6-(1-(piperidin-4-yl)-1H-pyrazol-4-yl)-3,4-dihydroquinolin-1 (2H)-yl)ethanone]	0.1 to 1 µM	–	< 0.5 µM
C[C@H]1CCc2c(ccc(-c3cnn(C)c3)c2OC2CCC2)N1C(=O)C1CC1 [I-55, (S)-(5-cyclobutoxy-2-methyl-6-(1-methyl-1H-pyrazol-4-yl)-3,4-dihydroquinolin-1 (2H)-yl)(cyclopropyl)methanone]	0.1 to 1 µM	–	< 0.5 µM
C[C@H]1CCc2c(ccc(-n3cc(C4CCNCC4)cn3)c2Oc2ccccc2)N1C(=O)C1CC1 [I-348, (S)-cyclopropyl(2-methyl-5-phenoxy-6-(4-(piperidin-4-yl)-1H-pyrazol-1-yl)-3,4-dihydroquinolin-1(2H)-yl)methanone]	1 to 10 µM	–	< 0.5 µM
COc1ccc(Oc2c(-c3cnn(C4CCNCC4)c3)ccc3c2CC[C@H](C)N3C(=O)C2CC2)cc1 [I-196, (S)-cyclopropyl(5-(4-methoxyphenoxy)-2-methyl-6-(1-(piperidin-4-yl)-1H-pyrazol-4-yl)-3,4-dihydroquinolin-1(2H)-yl)methanone]	0.1 to 1 µM	–	< 0.5 µM
C[C@H]1CCc2c(ccc(-c3ccn(C4CCNCC4)n3)c2Oc2ccccc2)N1C(=O)C1CC1 [I-307, (S)-cyclopropyl(2-methyl-5-phenoxy-6-(1-(piperidin-4-yl)-1H-pyrazol-3-yl)-3,4-dihydroquinolin-1(2H)-yl)methanone]	0.1 to 1 µM	–	< 0.5 µM
COC(=O)N1c2ccc(-c3csc(C4(F)CNC4)n3)c(OC3CCC3)c2CC[C@@H]1C [I-349, (S)-methyl 5-cyclobutoxy-6-(2-(3-fluoroazetidin-3-yl)thiazol-4-yl)-2-methyl-3,4-dihydroquinoline-1(2H)-carboxylate]	1 to 10 µM	–	> 1 µM
CC(=O)N1c2ccc(-c3cnn(C4CC4)c3)c(OCC(C)C)c2CC[C@@H]1C [I-394]	0.1 to 1 µM	–	< 0.5 µM
C[C@H]1CCc2c(ccc(-c3cnn(C4CS(=O)(=O)C4)c3)c2Oc2ccc(F)cc2)N1C(=O)C1CC1 [I-229, 3-[4-[(2S)-1-cyclopropanecarbonyl-5-(4-fluorophenoxy)-2-methyl-1,2,3,4-tetrahydroquinolin-6-yl]-1H-pyrazol-1-yl]-1λ^6-thietane-1,1-dione]	0.1 to 1 µM	–	< 0.5 µM
C[C@H]1CCc2c(ccc(-c3ncc(C4CCNCC4)[nH]3)c2OC2CCC2)N1C(=O)C1CC1 [I-328, (S)-(5-cyclobutoxy-2-methyl-6-(5-(piperidin-4-yl)-1H-imidazol-2-yl)-3,4-dihydroquinolin-1(2H)-yl)(cyclopropyl)methanone]	1 to 10 µM	–	< 0.5 µM
COC(=O)N1c2c(F)cc(-c3cn(C)nn3)c(Oc3ccccc3)c2CC[C@@H]1C [I-322, (S)-methyl 8-fluoro-2-methyl-6-(1-methyl-1H-1,2,3-triazol-4-yl)-5-phenoxy-3,4-dihydroquinoline-1(2H)-carboxylate]	0.1 to 1 µM	–	< 0.5 µM
C[C@H]1CCc2c(Oc3ccccc3)c(-c3cn[nH]c3)cc(F)c2N1C(=O)C1CC1 [I-238, (S)-cyclopropyl(8-fluoro-2-methyl-5-phenoxy-6-(1H-pyrazol-4-yl)-3,4-dihydroquinolin-1(2H)-yl)methanone]	1 to 10 µM	–	< 0.5 µM
COC(=O)N1c2ccc(-c3cnn(C4CNC4)c3)c(Oc3ccccc3)c2CC[C@@H]1C [I-193, (S)-methyl 6-(1-(azetidin-3-yl)-1H-pyrazol-4-yl)-2-methyl-5-phenoxy-3,4-dihydroquinoline-1(2H)-carboxylate]	0.1 to 1 µM	–	< 0.5 µM
COC(=O)N1c2c(F)cc(-c3cnn(C4CCNCC4)c3)c(OC3CCC3)c2CC[C@@H]1C [I-110, (S)-methyl 5-cyclobutoxy-8-fluoro-2-methyl-6-(1-(piperidin-4-yl)-1H-pyrazol-4-yl)-3,4-dihydroquinoline-1(2H)-carboxylate]	0.1 to 1 µM	–	< 0.5 µM
